The source of these data is patent US20250129028A1, “COMPOUNDS AND METHODS FOR YAP/TEAD MODULATION AND INDICATIONS THEREFOR” (Opna Bio SA, priority 2022, published 2025).

In this assay the test system is TEAD-dependent transcription. The assay is described as follows: TEAD-dependent transcription cell-based reporter assay (MSTO-211H+12XGTIIC luciferase). Set-up: species or system human. Particulars: Homo sapiens; MSTO-211H+12XGTIIC cell line, luciferase signal normalized to cell viability, 24 hours compound incubation; read-out: MSTO-211H GMean IC50 (uM) Cell Assay Reporter Cell Variant: TEAD. The procedure, abridged:
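MSTO-211H mesothelioma cells stably carrying a 12xGTIIC TEAD-response-element luciferase reporter, treated with serial compound dilutions for 24 h at 37 °C. Luminescence normalized to CellTiter-Fluor viability signal; % inhibition versus DMSO and 20 μM K-975 controls, IC50 by nonlinear regression.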

By IC50 is commonly meant the concentration that gives 50% inhibition. In the case of `CS(=O)(=O)CCC(=O)N1CCc2ccc(-c3ccc(OC(F)(F)F)cc3)cc2C1` [P-0277, 3-(methylsulfonyl)-1-(7-(4-(trifluoromethoxy)phenyl)-3,4-dihydroisoquinolin-2(1H)-yl)propan-1-one], the IC50 fell in the range of 10 to 100 µM.
